The subject of this assay is Human recombinant GST-PI3K. The experiment in a line: PI3K induced-lipid phosphorylation scintillation proximity assay (neomycin-coated SPA beads). Type of assay: biochemical. Conditions: amount necessary to achieve 50% inhibition of PI3K; 120 min at room temperature. The text has this: The efficacy of compounds of the invention in inhibiting the PI3K induced-lipid phosphorylation may be tested in the following binding assay. The assay combines the scintillation proximity assay technology (SPA, Amersham) with the capacity of neomycin (a polycationic antibiotic) to bind phospholipids with high affinity and specificity. The Scintillation Proximity Assay is based on the properties of weakly emitting isotopes (such as ^3H, ^125I, ^33P). Coating SPA beads with neomycin allows the detection of phosphorylated lipid substrates after incubation with recombinant PI3K and radioactive ATP in the same well, by capturing the radioactive phospholipids to the SPA beads through their specific binding to neomycin. To a 96 wells MTP containing 10 μl of the test compound of Formula (I) (solubilized in 10% DMSO; to yield a concentration of 100, 25, 5.0, 1.25, 0.312, 0.078, 0.0195, 0.00488, 0.00122 and 0.0003 μM of the test compound), the following assay components are added: 1) 10 μL of lipid micelles 2) […] of Kinase buffer ([^33P]γATP162 μM/300 nCi, MgCl2 2.5 mM, DTT 2.5 mM, Na3VO4 25 μM in Hepes 40 mM, pH 7.4) and 3) 10 μL (100 ng) of Human recombinant GST-PI3K (in Hepes 40 mM, pH 7.4, ethylenglycol 4%). After incubation at room temperature for 120 minutes, with gentle agitation, the reaction is stopped by addition of 200 μL of a solution containing 250 μg of neomycin-coated PVT SPA beads, ATP 60 mM and EDTA 6.2 mM in PBS. The assay is further incubated at room temperature for 60 minutes with gentle agitation to allow binding of phospholipids to neomycin-SPA beads. After precipitation of the neomycin-coated PVT SPA beads for 5 minutes at 1500×g, radioactive PtdIns(3)P is quantified by scintillation counting in a Wallac MicroBeta™ plate counter. The values indicated in Table I below refer to the IC50 (μM) with respect to PI3K, i.e. the amount necessary to achieve 50% inhibition of said target. Said values show a considerable inhibitory potency of pyridopyrimidine compounds with regard to PI3K.
(Scintillation proximity formats need no separation of bound from free tracer.)

Usually IC50 stands for the midpoint of a concentration-inhibition curve.

In the case of `COCCOc1cc(C(=O)O)nc2c(-c3cc(O)cc(F)c3)nc(N3CCOCC3)nc12` [Example 15, 4-(3-Fluoro-5-hydroxy-phenyl)-8-(2-methoxy-ethoxy)-2-morpholin-4-yl-pyrido[3,2-d]pyrimidine-6-carboxylic acid], the half-maximal inhibitory concentration (IC50) was found to be 93 nM. For `CS(=O)(=O)c1cc(C(=O)O)nc2c(-c3cccc(F)c3O)nc(N3CCOCC3)nc12` [Example 39] the value was 26 nM; for `COCc1cccc(-c2nc(N3CCOCC3)nc3c(NCCO)cc(C(=O)O)nc23)c1` [Example 28, 8-(2-Hydroxy-ethylamino)-4-(3-methoxymethyl-phenyl)-2-morpholin-4-yl-pyrido[3,2-d]pyrimidine-6-carboxylic acid], 2490 nM; for `COCCOc1cc(C(=O)O)nc2c(-c3cccc(O)c3)nc(N3CCOCC3)nc12` [Example 11, 4-(3-Hydroxy-phenyl)-8-(2-methoxy-ethoxy)-2-morpholin-4-yl-pyrido[3,2-d]pyrimidine-6-carboxylic acid], 255 nM. As to `CN(C)CCN(C)c1cc(C(=O)O)nc2c(-c3cc(F)ccc3O)nc(N3CCOCC3)nc12` [Example 32, 8-[[2-(Dimethylamino)ethyl](methyl)amino]-4-(5-fluoro-2-hydroxyphenyl)-2-morpholin-4-ylpyrido[3,2-d]pyrimidine-6-carboxylic acid], the IC50 amounted to 564 nM. As for `COCCN(C)c1cc(C(=O)O)nc2c(-c3cc(O)cc(F)c3)nc(N3CCOCC3)nc12` [Example 14, 4-(3-Fluoro-5-hydroxy-phenyl)-8-[(2-methoxy-ethyl)-methyl-amino]-2-morpholin-4-yl-pyrido[3,2-d]pyrimidine-6-carboxylic acid], the IC50 is 19 nM. For `COCCN(C)c1cc(C(=O)O)nc2c(-c3cccc(F)c3O)nc(N3CCOCC3)nc12` [Example 33, 4-(3-Fluoro-2-hydroxyphenyl)-8-[(2-methoxyethyl)(methyl)amino]-2-morpholin-4-ylpyrido[3,2-d]pyrimidine-6-carboxylic acid], the IC50 was 9 nM. Turning to `COCCNc1cc(C(=O)O)nc2c(-c3cccc(COC)c3)nc(N3CCOCC3)nc12` [Example 26, 8-(2-Methoxy-ethylamino)-4-(3-methoxymethyl-phenyl)-2-morpholin-4-yl-pyrido[3,2-d]pyrimidine-6-carboxylic acid], the IC50 came to 1830 nM.

With `O=C(O)c1cc(Cl)c2nc(N3CCOCC3)nc(-c3ccccc3)c2n1` [Example 64, 8-Chloro-2-morpholin-4-yl-4-phenylpyrido[3,2-d]pyrimidine-6-carboxylic acid], the IC50 amounted to 678 nM.

With `O=C(O)c1cc(NCCO)c2nc(N3CCOCC3)nc(-c3ccccc3O)c2n1` [Example 44, 8-[(2-Hydroxyethyl)amino]-4-(2-hydroxyphenyl)-2-morpholin-4-ylpyrido[3,2-d]pyrimidine-6-carboxylic acid], the IC50 was 82 nM.

As to `CN(C)c1cc(C(=O)O)nc2c(-c3cccc(CO)c3)nc(N3CCOCC3)nc12` [Example 23, 8-Dimethylamino-4-(3-hydroxymethyl-phenyl)-2-morpholin-4-yl-pyrido[3,2-d]pyrimidine-6-carboxylic acid], the 50% inhibitory concentration (IC50) came to 34 nM.

Turning to `CN(C)c1cc(C(=O)O)nc2c(-c3ccc(F)c(CO)c3)nc(N3CCOCC3)nc12` [Example 49, 8-(Dimethylamino)-4-[4-fluoro-3-(hydroxymethyl)phenyl]-2-morpholin-4-ylpyrido[3,2-d]pyrimidine-6-carboxylic acid], the IC50 is 329 nM.

On to `CN(CCO)c1cc(C(=O)O)nc2c(-c3ccc(F)c(CO)c3)nc(N3CCOCC3)nc12` [Example 50, 4-[4-Fluoro-3-(hydroxymethyl)phenyl]-8-[(2-hydroxyethyl)(methyl)amino]-2-morpholin-4-ylpyrido[3,2-d]pyrimidine-6-carboxylic acid], for which the half-maximal inhibitory concentration (IC50) was 303 nM.

Take `O=C(O)c1cc(NCCO)c2nc(N3CCOCC3)nc(-c3cccc(O)c3)c2n1` [Example 12, 8-(2-Hydroxy-ethylamino)-4-(3-hydroxy-phenyl)-2-morpholin-4-yl-pyrido[3,2-d]pyrimidine-6-carboxylic acid]: the IC50 amounted to 75 nM. On to `CS(=O)(=O)c1cc(C(=O)O)nc2c(-c3cc(F)ccc3O)nc(N3CCOCC3)nc12` [Example 55, 4-(5-Fluoro-2-hydroxyphenyl)-8-(methylsulfonyl)-2-morpholin-4-ylpyrido[3,2-d]pyrimidine-6-carboxylic acid], for which the IC50 came out at 139 nM.

As to `O=C(O)c1cc(NCCO)c2nc(N3CCOCC3)nc(-c3ccc(O)cc3)c2n1` [Example 7, 8-(2-Hydroxy-ethylamino)-4-(4-hydroxy-phenyl)-2-morpholin-4-yl-pyrido[3,2-d]pyrimidine-6-carboxylic acid], the IC50 was 732 nM. Take `COCCNc1cc(C(=O)O)nc2c(-c3ccc(F)cc3O)nc(N3CCOCC3)nc12` [Example 54, 4-(4-Fluoro-2-hydroxyphenyl)-8-[(2-methoxyethyl)amino]-2-morpholin-4-ylpyrido[3,2-d]pyrimidine-6-carboxylic acid]: the IC50 amounted to 89 nM. For `O=C(O)c1cc(NCCO)c2nc(N3CCOCC3)nc(-c3cccc(F)c3O)c2n1` [Example 38, 4-(3-Fluoro-2-hydroxyphenyl)-8-[(2-hydroxyethyl)amino]-2-morpholin-4-ylpyrido[3,2-d]pyrimidine-6-carboxylic acid], the half-maximal inhibitory concentration (IC50) was found to be 43 nM. On to `CN(CCO)c1cc(C(=O)O)nc2c(-c3cccc4[nH]ccc34)nc(N3CCOCC3)nc12` [Example 20, 8-[(2-Hydroxy-ethyl)-methyl-amino]-4-(1H-indol-4-yl)-2-morpholin-4-yl-pyrido[3,2-d]pyrimidine-6-carboxylic acid], for which the IC50 was 77 nM. For `CNc1cc(C(=O)O)nc2c(-c3cccc(F)c3O)nc(N3CCOCC3)nc12` [Example 35, 4-(3-Fluoro-2-hydroxyphenyl)-8-(methylamino)-2-morpholin-4-ylpyrido[3,2-d]pyrimidine-6-carboxylic acid] the value was 48 nM; for `CN(C)c1cc(C(=O)O)nc2c(-c3ccccc3O)nc(N3CCOCC3)nc12` [Example 42, 8-(Dimethylamino)-4-(2-hydroxyphenyl)-2-morpholin-4-ylpyrido[3,2-d]pyrimidine-6-carboxylic acid], 23 nM.

Regarding `COCCNc1cc(C(=O)O)nc2c(-c3cccc(F)c3O)nc(N3CCOCC3)nc12` [Example 36, 4-(3-Fluoro-2-hydroxyphenyl)-8-[(2-methoxyethyl)amino]-2-morpholin-4-ylpyrido[3,2-d]pyrimidine-6-carboxylic acid], the IC50 was 18 nM. Consider `COc1ccccc1-c1cc(C(=O)O)nc2c(-c3cccc(O)c3)nc(N3CCOCC3)nc12` [Example 13, 4-(3-hydroxyphenyl)-8-(2-methoxyphenyl)-2-morpholin-4-ylpyrido[3,2-d]pyrimidine-6-carboxylic acid], for which the IC50 turned out to be 24 nM. `CNc1cc(C(=O)O)nc2c(-c3ccc(F)cc3O)nc(N3CCOCC3)nc12` [Example 53, 4-(4-Fluoro-2-hydroxyphenyl)-8-(methylamino)-2-morpholin-4-ylpyrido[3,2-d]pyrimidine-6-carboxylic acid]: the IC50 stood at 412 nM. Regarding `CN(C)CCN(C)c1cc(C(=O)O)nc2c(-c3ccccc3O)nc(N3CCOCC3)nc12` [Example 43, 8-[[2-(Dimethylamino)ethyl](methyl)amino]-4-(2-hydroxyphenyl)-2-morpholin-4-ylpyrido[3,2-d]pyrimidine-6-carboxylic acid], the IC50 amounted to 459 nM. For `Cc1cc(O)ccc1-c1nc(N2CCOCC2)nc2c(N(C)CCO)cc(C(=O)O)nc12` [Example 58, 8-[(2-Hydroxyethyl)(methyl)amino]-4-(4-hydroxy-2-methylphenyl)-2-morpholin-4-ylpyrido[3,2-d]pyrimidine-6-carboxylic acid], the IC50 was 936 nM. With `CC(=O)N1CCN(c2cc(C(=O)O)nc3c(-c4cccc(O)c4)nc(N4CCOCC4)nc23)CC1` [Example 60, 8-(4-Acetylpiperazin-1-yl)-4-(3-hydroxyphenyl)-2-morpholin-4-ylpyrido[3,2-d]pyrimidine-6-carboxylic acid] the figure was 80 nM. For `COCCN(C)c1cc(C(=O)O)nc2c(-c3cccc(CO)c3)nc(N3CCOCC3)nc12` [Example 47, 4-[3-(Hydroxymethyl)phenyl]-8-[(2-methoxyethyl)(methyl)amino]-2-morpholin-4-ylpyrido[3,2-d]pyrimidine-6-carboxylic acid] the value was 8 nM; for `CN(C)c1cc(C(=O)O)nc2c(-c3ccc(O)cc3)nc(N3CCOCC3)nc12` [Example 4, 8-Dimethylamino-4-(4-hydroxy-phenyl)-2-morpholin-4-yl-pyrido[3,2-d]pyrimidine-6-carboxylic acid], 350 nM.

(Values after patent US8609666B2, “2-morpholino-pyrido[3,2-D]pyrimidines” (Merck Serono SA, priority 2009, dated 2013).)
